Measured values from patent publication US8227203B2, “Method for testing or screening protein synthesis inhibitors” (The Trustees of the University of Pennsylvania, priority 2007, dated 2012).

Key:
HeLa PV cells = experiment: SMN sub-cellular localization by indirect immunofluorescence (anti-SMN 2B1); assay type: cell-based; conditions: for completeness of SMN nuclear accumulation compared with CHX: ER stress inducers, FIG. 6B; for redistribution of SMN from the cytoplasm to the nucleus (nuclear accumulation of SMN): HeLa cells, short treatment (2-6 hours), immunofluorescence; for nuclear translocation of SMN at longer times: longer times (>24 hr), FIG. 5a
Description: (§1) HeLa PV were cultured in Dulbecco's modified Eagle's medium (Invitrogen) supplemented with 10% fetal bovine serum (Invitrogen). For screening, cells were seeded onto 384-well plates or, for specific experiments, on glass coverslips the day before treatment. Compounds were added directly into the culture medium to the indicated concentration and the cells were then maintained at 37° C. in a 5% CO2 humidified atmosphere for the duration of the treatment. Dispensing of compounds and other automatic liquid handling steps were performed with a Beckman FX multi-channel system equipped with Hudson Crane robotic systems.
(§2) The following mouse monoclonal antibodies were used for indirect immunofluorescence: 2B1 (anti-SMN), 2E17 (anti-Gemin2), 12H12 (anti-Gemin3), 10G11 (anti-Gemin5), 6E2 (anti-Gemin7), 10E10 (anti-PABP), 6BG10 (anti-FXR1), Y12 (anti-Sm) and 9H10 (anti-hnRNP A1). An affinity-purified rabbit polyclonal antibody was used to detect Gemin6.
(§3) Indirect immunofluorescence on HeLa PV cells was performed as follows: HeLa cells, plated on glass coverslips, were briefly washed with PBS, fixed in 2% formaldehyde/PBS for 20 minutes at room temperature, permeabilized in 0.5% Triton X-100/PBS for 5 min at room temperature. Cells were blocked in 3% bovine serum albumin for 1 hour at room temperature. Double-label immunofluorescence experiments were performed by separate sequential incubations of each primary antibody, diluted in PBS containing 3% bovine serum albumin, followed by the specific secondary coupled to fluorescein isothiocyanate or TXRD. All incubations were at room temperature for 1 hour. Indirect epifluorescence microscopy was performed with a Nikon Eclipse E800 microscope. Digital images were collected with a Cook Sensicam high performance camera and processed with the IP laboratory software. Processing of samples for immunofluorescence microscopy on cells cultured in 384-well plates was automated and performed with the aid of microplate washers (ELX405, Bio-Tek) in a similar manner to that previously used for individual samples on glass slides. The cells were also stained with DAPI to allow definition of the nucleus in each cell. Digital images were acquired with an automated microscopy and analysis system (IN Cell Analyzer 1000, GE Healthcare). Images were analyzed using automated algorithms with parameters set to calculate mean pixel intensity in each nucleus (defined by DAPI staining and acquired in a separate channel), cytoplasm, and total cell, as well as the relevant calculated ratios of these values.
Based on the results obtained in Example 1, a library of ˜5,000 biologically active small molecules was screened on HeLa cells in 384-well plates. Each well was incubated with a different compound (at 10 μM) and the cells were processed for indirect immunofluorescence. Digital images were collected from six fields in each well and analyzed using imaging algorithms for multiple parameters including relative nuclear and cytoplasmic intensities, and number, size and signal intensity of Gems. DAPI-stained images were collected in a separate channel to define the boundary of each nucleus. Images of individual fields in wells were flagged by the software as showing a significant change in SMN sub-cellular localization. These individual wells were examined directly, and active compounds were re-tested for verification (FIG. 2).

HeLa cells [1] = experiment: Sub-cellular localization of Gemins by immunostaining; assay type: cell-based
Description: as §1, with “systems. […]” for “systems.”
Indirect immunofluorescence on HeLa PV cells was performed as follows: HeLa cells, plated on glass coverslips, were briefly washed with PBS, fixed in 2% formaldehyde/PBS for 20 minutes at room temperature, permeabilized in 0.5% Triton X-100/PBS for 5 min at room temperature. […] Images were analyzed using automated algorithms with parameters set to calculate mean pixel intensity in each nucleus (defined by DAPI staining and acquired in a separate channel), cytoplasm, and total cell, as well as the relevant calculated ratios of these values. […]

HeLa cells [2] = experiment: Localization of other nuclear and cytoplasmic proteins (hnRNP A1, PABP, FXR1, snRNPs) by immunostaining; assay type: cell-based; conditions: 6 hrs of 10 μM CHX (FIG. 3c)
Description: as §2
Indirect immunofluorescence on HeLa PV cells was performed as follows: HeLa cells, plated on glass coverslips, were briefly washed with PBS, fixed in 2% formaldehyde/PBS for 20 minutes at room temperature, permeabilized in 0.5% Triton X-100/PBS for 5 min at room temperature. Cells were blocked in 3% bovine serum albumin for 1 hour at room temperature. Double-label immunofluorescence experiments were performed by separate sequential incubations of each primary antibody, diluted in PBS containing 3% bovine serum albumin, followed by the specific secondary coupled to fluorescein isothiocyanate or TXRD. All incubations were at room temperature for 1 hour. Indirect epifluorescence microscopy was performed with a Nikon Eclipse E800 microscope. […] Images were analyzed using automated algorithms with parameters set to calculate mean pixel intensity in each nucleus (defined by DAPI staining and acquired in a separate channel), cytoplasm, and total cell, as well as the relevant calculated ratios of these values.

HeLa cells [3] = experiment: Cell viability / toxicity of treated cells; conditions: overnight treatment with 10 μM CHX
[4] = tested on: Hela cells with reduced SMN by RNAi; experiment: SMN localization in HeLa cells with reduced SMN by RNAi (shRNA targeting SMN); assay type: cell-based; conditions: vs cells expressing non-targeting shRNA; 10 μM CHX 6 hours (FIG. 7)
Description: as §3, with “The cells were also stained with DAPI to allow definition of the nucleus in each cell. Digital images were acquired with an automated microscopy and analysis system (IN Cell Analyzer 1000, GE Healthcare).” left out

C/C=C(/C)C(=O)O[C@H]1C(C)=C2[C@H]([C@@H]1OC(=O)CCCCCCC)[C@@](C)(OC(C)=O)C[C@H](OC(=O)CCC)[C@@]1(O)[C@H]2OC(=O)[C@@]1(C)O [thapsigargin]
SMN localization (FIG. 6b) (HeLa PV cells; 10 μM): nuclear accumulation | completeness of SMN nuclear accumulation compared with CHX (HeLa PV cells): not as complete as that seen after treatment with high levels of CHX | redistribution of SMN from the cytoplasm to the nucleus (nuclear accumulation of SMN) (HeLa PV cells): caused SMN to accumulate in the nucleus

O=C(CCCCCN1C(=O)c2cccc3cccc(c23)C1=O)NO [scriptaid]
nuclear translocation of SMN at longer times (HeLa PV cells): caused the same effect as protein synthesis inhibitors

CCCC(CCC)C(=O)O [valproic acid]
localization of Gemin3 and Gemin5 (HeLa cells [1]; 24 hour treatment, 10 mM VPA (FIG. 5c)): remain predominantly cytoplasmic | concentration dependence of nuclear localization of SMN (HeLa PV cells; 2-10 mM VPA (FIG. 5b)): clear concentration dependence effect | nuclear translocation of SMN at longer times (HeLa PV cells): caused the same effect as protein synthesis inhibitors

CC(/C=C/C(=O)NO)=C\[C@@H](C)C(=O)c1ccc(N(C)C)cc1 [trichostatin A]
nuclear translocation of SMN at longer times (HeLa PV cells): caused the same effect as protein synthesis inhibitors

CC[C@H]1CN2CCc3cc(OC)c(OC)cc3[C@@H]2C[C@@H]1C[C@H]1NCCc2cc(OC)c(OC)cc21 [emetine]
SMN localization (FIG. 6b) (HeLa PV cells; 10 μM): nuclear accumulation | redistribution of SMN from the cytoplasm to the nucleus (nuclear accumulation of SMN) (HeLa PV cells): showed the same effect as cycloheximide

tunicamycin
SMN localization (FIG. 6b) (HeLa PV cells; 10 μg/ml): nuclear accumulation | completeness of SMN nuclear accumulation compared with CHX (HeLa PV cells): not as complete as that seen after treatment with high levels of CHX | redistribution of SMN from the cytoplasm to the nucleus (nuclear accumulation of SMN) (HeLa PV cells): caused SMN to accumulate in the nucleus

C[C@@H]1C[C@@H]([C@H](O)CC2CC(=O)NC(=O)C2)C(=O)[C@@H](C)C1 [cycloheximide]
localization of hnRNP A1, PABP, FXR1 and snRNPs (HeLa cells [2]): not significantly affected | cell viability (HeLa cells [3]): no reduction in cell viability | nuclear accumulation of SMN complex components (Gemins) (HeLa cells [1]; 6 hours 10 μM CHX (FIG. 4)): causes most of the components of the SMN complex to accumulate in the nucleus | relation of nuclear accumulation of SMN to inhibition of protein synthesis (HeLa PV cells): proportional to the extent of inhibition of protein synthesis | concentration dependence of SMN redistribution from the cytoplasm to the nucleus (HeLa PV cells; 0.1-40 μM (FIG. 3a, b)): concentration-dependent | treatment time after which the effect on SMN redistribution was evident (HeLa PV cells; HeLa PV cells, 10 μM CHX (FIG. 3a)): 2 h | redistribution of SMN from the cytoplasm to the nucleus (nuclear accumulation of SMN) (HeLa PV cells): most striking accumulation of SMN in the nucleus | SMN remaining in the cytoplasm (HeLa PV cells; after 8 or more hours of treatment): little SMN detected in the cytoplasm | reversibility of SMN nuclear accumulation (HeLa PV cells; cells washed and placed in fresh medium devoid of cycloheximide): reversible | SMN localization after overnight treatment (HeLa PV cells; overnight treatment with 10 μM CHX): all of the SMN was localized to the nucleus | SMN nuclear accumulation in cells with reduced SMN [4]: showed a similar effect

CCOC(=O)CN1C(=O)CC(C[C@@H](O)[C@@H]2C[C@@H](C)C[C@H](C)C2=O)CC1=O [cycloheximide-N-ethylethanoate]
redistribution of SMN from the cytoplasm to the nucleus (nuclear accumulation of SMN) (HeLa PV cells): did not show any effect

COc1ccc(C[C@H](N)C(=O)N[C@H]2[C@@H](O)[C@H](n3cnc4c(N(C)C)ncnc43)O[C@@H]2CO)cc1 [puromycin]
SMN localization (FIG. 6b) (HeLa PV cells; 10 μM): nuclear accumulation | redistribution of SMN from the cytoplasm to the nucleus (nuclear accumulation of SMN) (HeLa PV cells): showed the same effect as cycloheximide
